Data on 1 molecule can be found in patent publication US12263199B2, “Use of Sida rhombifolia” (priority 2019, dated 2025).

SMILES strings stand for the structures.

For this experiment, the system named is 5-alpha reductase (5AR). Put plainly: Analysis of the ability of inhibition of 5AR activity (β-NADPH absorbance). Format: biochemical, Sprague Dawley rats. Conditions: finasteride 100 uM, rat prostate enzyme source, 7.5 mM testosterone, 30 minutes. As for the experimental part:
In order to prepare the 5AR enzyme source, first, 15-week-old Sprague Dawley rats (obtained from Coretech) were kept under CO2 inhalation anesthesia, and then the prostate tissue was excised. After washing 200 mg of the excised tissue twice with PBS at pH 7.4, 10 ml of lysis buffer {20 mM sodium phosphate containing 0.32 M sucrose and 1 mM ethylenediaminetetraacetic acid (EDTA) at pH 6.5} was added, followed by homogenizing the mixture by a glass homogenizer. The homogenate was centrifuged at 4° C. and 5,000 rpm for 15 minutes to take the supernatant and quantify a protein using Brad Ford reagent, and then the protein was used as a 5AR enzyme source. The remaining homogenate was stored at −70° C.
The ability to inhibit 5AR activity was measured using the method of Nahata and Dixit {Andrologia, 46(6):592-601, 2014}. In a 96-well plate, the enzyme source (0.8 mg/ml protein) prepared as in 2-2, a solution obtained by dissolving the solvent extract prepared in 2-1. in methanol (50 ug/ml), 7.5 mM testosterone, and 300 uM β-NADPH were reacted at 37° C. Thereafter, absorbance according to the change in the amount of β-NADPH at 350 nm was measured every 5 minutes for a total of 30 minutes. The measurement value was calculated using a standard graph of β-NADPH, and the unit was expressed as pg/ml. […]

`CC(C)(C)NC(=O)[C@H]1CC[C@H]2[C@@H]3CC[C@H]4NC(=O)C=C[C@]4(C)[C@H]3CC[C@]12C` [finasteride]: the “concentration of β-NADPH in the reaction solution at the end of the reaction (5AR activity inhibition)” value is given as “concentration of β-NADPH increased compared to that in the negative control group”.
